In general, IC50 refers to the concentration at which inhibition is half-maximal.

These results are taken from PMC11766267 (International Journal of Molecular Sciences, 2025).

The test system of one series is HCT-116. The series is described as follows: MTT cytotoxicity assay, HCT-116. In kind it is cell-based. The settings on record: Homo sapiens, 24 h treatment, mean ± SD of triplicate. Here is the method:
(§1) Subsequently, 100 µL of dimethyl sulfoxide was introduced to dissolve the insoluble formazan.
(Tetrazolium assays rely on reduction of a dye to a coloured formazan, in cell work by metabolically active cells.)

A further series deals with MDA-MB-231. Kind of series: MTT cytotoxicity assay, MDA-MB-231. In kind it is cell-based. Particulars: Homo sapiens, 24 h treatment, mean ± SD of triplicate. On the procedure:
as §1

In a further series the test system is HeLa. Kind of series: MTT cytotoxicity assay, HeLa. In kind it is cell-based. Particulars: Homo sapiens, 24 h treatment, mean ± SD of triplicate. On the procedure: as §1
In series [1] the test system is MCF-7. Kind of series: MTT cytotoxicity assay, MCF-7. Format: cell-based, human. Particulars: 24 h treatment, mean ± SD of triplicate. On the procedure:
as §1

Series [2] is described as follows: MTT cytotoxicity assay, normal cell line WI-38. In kind it is cell-based, human. The settings on record: human, WI-38 cells (normal human lung fibroblasts), normal (non-cancer) cell line, 24 h treatment. On the procedure: as §1
Series [3] concerns HCT-116, MDA-MB-231, HeLa, and MCF-7. Kind of series: MTT cytotoxicity assay, ranges stated over several cell lines. Format: cell-based. Particulars: Homo sapiens, HCT-116, MDA-MB-231, HeLa, MCF-7; range; read-out: IC50 values, range over the cancer cell lines tested. On the procedure:
as §1

The subject of series [4] is MCF-7. Kind of series: In vitro anti-estrogenic activity assay, MCF-7.
A further series concerns MCF-7a. Kind of series: In vitro anti-estrogenic activity assay, MCF-7a.
Where [5] appears, read: cell count relative to the control (17β-E2).

Where only a bound is given, the exact number is not on record here.

For `COc1ccc(/C=C/C(=O)c2cccc(OC)c2)cc1` [Compound 4l, (E)-1-(3-Methoxyphenyl)-3-(4-methoxyphenyl) prop-2-en-1-one], the IC50 in the series with HCT-116 was 84 ± 4.2 µM; in the series on MDA-MB-231, 91.7 ± 4.5 µM; in the series on HeLa, 88.8 ± 4.6 µM; in the series on MCF-7 [1] (Homo sapiens, MCF7, 24 h), 75.4 ± 3.8 µM; in series [3], 61.9 to 91.7 µM. Half-maximal inhibition in series [2] (IC50 at 24 h) was put at 16.2 ± 1.3 µM.

On to `O=C(/C=C/c1ccccc1OCc1ccccc1)c1ccccc1` [Compound 4g, (E)-3-(2-(Benzyloxy)phenyl)-1-phenylprop-2-en-1-one], for which the IC50 is 54 ± 3 µM with HCT-116; 59.2 ± 3.5 µM in the series on MDA-MB-231; 36.5 ± 2.4 µM in the series on HeLa; 48.4 ± 2.6 µM in the series with MCF-7 [1] (Homo sapiens, MCF7, 24 h); 23.5 to 74.5 µM in series [3]. For the same compound, the IC50 at 24 h in series [2] was found to be 27.8 ± 1.9 µM.

For `COc1ccc(C(=O)/C=C/c2ccc(Cl)cc2)cc1` [Compound 4n, (E)-3-(4-Chlorophenyl)-1-(4-methoxyphenyl)prop-2-en-1-one], the IC50 in the series on HCT-116 was 66.1 ± 3.8 µM; in the series with MDA-MB-231, 48.6 ± 2.8 µM; in the series with HeLa, 74.5 ± 3.9 µM; in the series with MCF-7 [1] (Homo sapiens, MCF7, 24 h) it was 37 ± 2.3 µM; in series [3], 23.5 to 74.5 µM. Further, the IC50 at 24 h in series [2] is 61.5 ± 3.4 µM.

Consider `COc1cccc(C(=O)/C=C/c2cccc(OCc3ccccc3)c2)c1` [Compound 4p, (E)-3-(3-(Benzyloxy)phenyl)-1-(3-methoxyphenyl)prop-2-en-1-one], for which the IC50 is 39.8 ± 2.4 µM in the series with HCT-116; 68.4 ± 3.7 µM in the series on MDA-MB-231; 45.2 ± 2.4 µM in the series with HeLa; 57.1 ± 3.2 µM with MCF-7 [1] (Homo sapiens, MCF7, 24 h); 23.5 to 74.5 µM in series [3]. In addition, in series [2], 92.1 ± 4.9 µM corresponded to half-maximal inhibition (IC50 at 24 h).

`COc1ccc(C(=O)/C=C/c2cccc(OCc3ccccc3)c2)cc1` [Compound 4r, (E)-3-(3-(Benzyloxy)phenyl)-1-(4-methoxyphenyl)prop-2-en-1-one]: the IC50 is 62.6 ± 3.7 µM in the series with HCT-116; 51.8 ± 2.9 µM with MDA-MB-231; 57 ± 3.2 µM with HeLa; 39.3 ± 2.4 µM in the series with MCF-7 [1] (Homo sapiens, MCF7, 24 h); 23.5 to 74.5 µM in series [3]. Besides, in series [2], the IC50 at 24 h was greater than 100 µM.

As for `O=C(/C=C/c1ccc(OCc2ccccc2)cc1)c1ccccc1` [Compound 4i, (E)-3-(4-(Benzyloxy)phenyl)-1-phenylprop-2-en-1-one], the IC50 is greater than 100 µM in the series with HCT-116; greater than 100 µM in the series on MDA-MB-231; greater than 100 µM in the series with HeLa; 85.5 ± 4.3 µM with MCF-7 [1]; greater than 100 µM with MCF-7 [1] (Homo sapiens, MCF7, 24 h). In series [2], this compound yielded an IC50 at 24 h greater than 100 µM.

Regarding `COc1ccc(C(=O)/C=C/c2ccccc2)cc1` [Compound 4m, (E)-1-(4-Methoxyphenyl)-3-phenylprop-2-en-1-one], the IC50 with HCT-116 was 59.6 ± 3.5 µM; with MDA-MB-231, 45.9 ± 2.6 µM; in the series with HeLa, 63.6 ± 3.7 µM; in the series with MCF-7 [1] (Homo sapiens, MCF7, 24 h), 33 ± 2 µM; in series [3] it was 23.5 to 74.5 µM. The compound further had an IC50 at 24 h in series [2] of 87.6 ± 4.6 µM.

Take `O=C(/C=C/c1cccc(OCc2ccccc2)c1)c1ccccc1` [Compound 4h, (E)-3-(3-(Benzyloxy)phenyl)-1-phenylprop-2-en-1-one]: the IC50 in the series on HCT-116 was 46.8 ± 2.7 µM; in the series on MDA-MB-231, 53.8 ± 3.3 µM; in the series with HeLa, 25.6 ± 1.8 µM; in the series with MCF-7 [1] (Homo sapiens, MCF7, 24 h), 42.1 ± 2.4 µM; in series [3], 23.5 to 74.5 µM. Further, in series [2], it took 83.4 ± 4.2 µM to reach half-maximal inhibition (IC50 at 24 h).

Turning to `CCOc1ccc(/C=C/C(=O)c2ccccc2)cc1` [Compound 4f, (E)-3-(4-Ethoxyphenyl)-1-phenylprop-2-en-1-one], the IC50 with HCT-116 was 57.6 ± 3.3 µM; with MDA-MB-231, 46.1 ± 2.4 µM; in the series on HeLa it was 49.6 ± 2.8 µM; with MCF-7 [1] (Homo sapiens, MCF7, 24 h), 35.3 ± 2.1 µM; in series [3] it was 23.5 to 74.5 µM. For the same compound, the IC50 at 24 h in series [2] turned out to be 64.7 ± 3.6 µM.

As to `COc1ccc(C(=O)/C=C/c2ccc(OCc3ccccc3)cc2)cc1` [Compound 4s, (E)-3-(4-(Benzyloxy)phenyl)-1-(4-methoxyphenyl)prop-2-en-1-one], the IC50 with HCT-116 was 73.5 ± 3.9 µM; with MDA-MB-231, 82.4 ± 4.1 µM; in the series with HeLa, 87 ± 4.3 µM; in the series with MCF-7 [1] (Homo sapiens, MCF7, 24 h), 64.2 ± 3.5 µM; in series [3], 61.9 to 91.7 µM. Besides, in series [2], inhibition was half-maximal at 22.3 ± 1.6 µM (IC50 at 24 h).

With `COc1cccc(C(=O)/C=C/c2ccc(Cl)cc2)c1` [Compound 4k, (E)-3-(4-Chlorophenyl)-1-(3-methoxyphenyl)prop-2-en-1-one], the IC50 in the series with HCT-116 was greater than 100 µM; with MDA-MB-231, greater than 100 µM; with HeLa it was greater than 100 µM; in the series with MCF-7 [1] (Homo sapiens, MCF7, 24 h) it was greater than 100 µM. In series [2], the IC50 at 24 h was greater than 100 µM.

As for `COc1ccc(/C=C/C(=O)c2ccc(OC)cc2)cc1` [Compound 4o, (E)-1,3-bis(4-Methoxyphenyl)prop-2-en-1-one], the IC50 with HCT-116 is 89.2 ± 4.5 µM; in the series with MDA-MB-231 it was 73.5 ± 4 µM; with HeLa it was greater than 100 µM; in the series on MCF-7 [1] (Homo sapiens, MCF7, 24 h), 61.9 ± 3.4 µM; in series [3] it was 61.9 to 91.7 µM. The same compound had an IC50 at 24 h in series [2] of 24.2 ± 1.7 µM.

For `C[C@]12CC[C@@H]3c4ccc(O)cc4CC[C@H]3[C@@H]1CC[C@@H]2O` [Compound 17β-E2, 17β estradiol, reference compound], in the series on MCF-7 [4] (setting [5]), the “Cell Proliferation MCF-7 %” value was determined as 100%. The “Cell Proliferation MCF-7 Cell Count” value with MCF-7 [4] (mean ± SD of triplicate) is 18,524 ± 659. The “Cell Proliferation MCF-7a %” value with MCF-7a (setting [5]) is reported as 100%. The “Cell Proliferation MCF-7a Cell Count” value in the series on MCF-7a (mean ± SD of triplicate) is 20,776 ± 600.

With `COc1cccc(C(=O)/C=C/c2ccccc2)c1` [Compound 4j, (E)-1-(3-Methoxyphenyl)-3-phenylprop-2-en-1-one], the IC50 with HCT-116 was determined as 24.6 ± 1.7 µM; in the series on MDA-MB-231 it was 29.3 ± 1.9 µM; with HeLa, 34.9 ± 2.2 µM; in the series on MCF-7 [1] (Homo sapiens, MCF7, 24 h) it was 18.8 ± 1.5 µM. Half-maximal inhibition in series [2] (IC50 at 24 h) required 78.2 ± 3.9 µM.
